We go through 1 molecule from patent US12053465B2, “KCC2 expression enhancing compounds and uses thereof” (Whitehead Institute for Biomedical Research, priority 2017, dated 2024).

The subject of assay [1] is KCC2 expression (KCC2-2A-luciferase reporter). In words: KCC2-2A-luciferase reporter compound screening with RTT KCC2 reporter neurons. The class given is cell-based, human. Particulars: MECP2-null RTT human KCC2 reporter neurons; LINCS, SMART, ICCB libraries; Luc/CTG normalized to in-plate DMSO; hit = B score >3. The method in brief: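 MECP2-null RTT human neurons carrying a KCC2-2A-luciferase reporter, differentiated 4 weeks, were treated with library compounds at 10 μM for 1–2 weeks at 37 °C. Lysate luciferase was normalized to CellTiter-Glo ATP per well and expressed as fold change over in-plate DMSO. Hits were called at B score >3.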
A general note: Reporter assays use an easily measured gene product as a stand-in for the process of interest.

The test system of assay [2] is mouse models of autism and depression. The conditions noted are these: intraperitoneal (IP) injection; previous work (59, 60); cited from earlier work.
For assay [3], the system named is Mecp2 mutant mice. In words: Plethysmograph breathing measurement in Mecp2 mutant mouse model of RTT. Type of assay: in vivo. The conditions noted are these: male Mecp2 mutant mice; daily injection, two weeks; vs DMSO- or EtOH-injected control. The protocol: (§1) We assessed the in vivo efficacy of KEECs by treating RTT disease-related symptoms such as breathing pauses and reduced locomotion (58) in a Mecp2 mutant mouse model of RTT. […] Plethysmograph and locomotion measurements were made in 4-6 week-old male Mecp2 mutant animals as a pre-treatment control time point and were then injected daily with KEECs KW-2449 or Piperine. Injection of the solvent DMSO or ethanol (EtOH) served as vehicle controls (FIG. 15A). The same two behavioral measurements in vehicle or KEEC-injected Mecp2 mutant animals were performed again two weeks after the start of daily injections. Each animal's ‘after injection’ data were compared to the ‘before injection’ level to assess behavioral changes.
Male Mecp2 mutant mice (Mecp2^−/y, e.g. the Bird model) between 4-12 weeks of age were used for the in vivo experiments. Subjects were divided into drug treated KO (Piperine/KW-2449), and vehicle treated KO (EtOH/DMSO) groups. Animals were randomly assigned to treatment arms with approximately equivalent numbers in each group. […]
A full body plethysmograph chamber (EMKA Inc, PA) was used to measure breathing patterns. […] For each test, the subject was left in the chamber for 20 minutes, afterwards its breath pattern was recorded for the next 20 minutes, and the estimated amplitude modulation index (eAMI) was calculated from the breath trace to label breath pauses automatically. […]

The subject of assay [4] is Mecp2 mutant mice. In words: Locomotion (infrared beam break) in Mecp2 mutant mouse model of RTT. The class given is in vivo. The protocol: as §1
Male Mecp2 mutant mice (Mecp2^−/y, e.g. the Bird model) between 4-12 weeks of age were used for the in vivo experiments. Subjects were divided into drug treated KO (Piperine/KW-2449), and vehicle treated KO (EtOH/DMSO) groups. Animals were randomly assigned to treatment arms with approximately equivalent numbers in each group.
KW-2449 stock solution was prepared at 10 mg/ml with DMSO, and Piperine stock solution at 30 mg/ml with EtOH. 20 μl of stock solution were diluted with 1 ml saline for injection. Daily drug treatments or sham injections were performed on both groups between P28 and P56, for at least two weeks, as Mecp2 mutant mice start to show symptoms around P28 and die around P60. Both following tests were performed on both groups of mice before the injections start, and repeated at the end of the injection period. The animals' performance was then compared before and after drug/vehicle injections.
To measure the subjects' nighttime locomotion, a 1-D infrared light-beam frame (ActiMot, TSE-systems, MO) was used. Animals were single-housed in new cages with the same setup as their home cages. The infrared monitor was set up for each cage and the beam crossings was recorded between 17:00 and 9:00 the next morning, where the lights were turned off between 19:00 and 7:00. The average beam crossing frequency during the night (21:00-5:00) was used as the subject's activity score, and the average beam crossing frequency after lights on (7:00-9:00) was used as the subject's day time activity score. The time periods where the mouse is stationary for >5 minutes are discarded to reduce artifact caused by the mouse sleeping. As we look at both day-time and night-time locomotion, a bonferroni correction with repeated comparison number of 2 was applied. All behavioral analyses were performed by experimenters who were blind to the treatment condition.

The next assay has as its system KCC2 expression. In words: Western blot of KCC2 in cultured human RTT neurons. The class given is cell-based. Particulars: Western blot; for KCC2 expression: cultured human RTT neurons. The method in brief:
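Cultured neurons lysed in RIPA buffer (pH 7.6) with sonication; immunoblotted on PVDF with KCC2 antibody (1:2000) overnight at 4° C., HRP secondary.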
On the technique in general: A western blot detects proteins with antibodies after separation by electrophoresis.

The structures appear in SMILES notation. “Also recorded” adds a separate entry of the source.

Turning to `O=C(/C=C/C=C/c1ccc2c(c1)OCO2)N1CCCCC1` [Piperine, (2E,4E)-5-(Benzo[d][1,3]dioxol-5-yl)-1-(piperidin-1-yl)penta-2,4-dien-1-one], the “B Score” value in assay [1] worked out at 4.69. Besides, in assay [2], the “symptoms in mouse models of autism and depression” value is recorded as “improved symptoms”. In the assay with Mecp2 mutant mice [3], the “frequency of breathing pauses” value is on record as “significantly reduced the frequency of breathing pauses”. Moreover, in the assay with Mecp2 mutant mice [4] (Mecp2 mutant animals, vs EtOH control), the day-time locomotion result is recorded as “significantly increased day-time locomotion”. Also, in the assay with Mecp2 mutant mice [4] (male Mecp2 mutant mice, daily injection, two weeks, vs DMSO- or EtOH-injected control), the locomotive activities result is “increased locomotive activities”. Further, the “concentration at which treatment significantly increases KCC2 expression” value with KCC2 expression (cultured ESC-derived human RTT neurons) amounted to 10 µM. Also, the KCC2 expression entry with KCC2 expression is given as “induced KCC2 expression in a dose-dependent manner; also recorded: significant increase in KCC2 expression”; with KCC2 expression (listed as piperine) it was “increase KCC2 expression”.
